# Data from patent US6566307B1, “α,α′-substituted n-alkyl-3-alkenylbenzoyl-pyrazol-derivatives” (BASF Aktiengesellschaft, priority 1999, dated 2003).
# Columns and labels:
# Assay in all cases: Greenhouse herbicidal activity, post-emergence method
# Conditions in all cases: scale 0 to 100 (100 = complete destruction, 0 = no damage)
# POLPE = format: in vivo, ladysthumb
# From the text: (§1) The herbicidal activity of the compounds of the formula I was shown by greenhouse experiments: The culture containers used are plastic pots containing loamy sand with approximately 3.0% of humus as the substrate. The seeds of the test plants are sown separately for each species. For the post-emergence treatment, the test plants were first grown to a height of 3 to 15 cm, depending on the plant form, and only then treated with the active compounds which have been suspended or emulsified in water. The test plants were for this purpose either sown directly and grown in the same containers, or they were first grown separately as seedlings and transplanted into the test containers a few days prior to treatment. The application rate for the post-emergence treatment was 0.25, 0.125 or 0.0625 kg of active substance (a.s.)/ha. Depending on the species, the plants were kept at 10-25° C. or 20-35° C. The test period extended over 2 to 4 weeks. During this time, the plants are tended, and their response to the individual treatments was evaluated. The evaluation was carried out using a scale from 0 to 100. 100 means no emergence of the plants, or complete destruction of at least the aerial parts and 0 means no damage, or normal course of growth. The plants used in the greenhouse experiments were composed of the following species: [table]
# SETVI = format: in vivo, green foxtail
# From the text: as §1
# SINAL = format: in vivo, white mustard
# From the text: as §1
# CHEAL = format: in vivo, lambsquarter
# From the text: as §1
# ECHCG = format: in vivo, barnyardgrass
# From the text: as §1
# [1] = application rate 0.0625 kg of a.s./ha
# [2] = application rate 0.125 kg of a.s./ha
smiles,measurement,setting,value
C=Cc1c(S(C)(=O)=O)ccc(C(=O)C2C=NN(C(C)C)C2O)c1OC (stereo not shown),Herbicidal activity when used by the post-emergence method in a greenhouse,POLPE; [1],100
same,Herbicidal activity when used by the post-emergence method in a greenhouse,POLPE; [2],100
same,Herbicidal activity when used by the post-emergence method in a greenhouse,SETVI; [1],95
same,Herbicidal activity when used by the post-emergence method in a greenhouse,SETVI; [2],95
same,Herbicidal activity when used by the post-emergence method in a greenhouse,SINAL; [1],98
same,Herbicidal activity when used by the post-emergence method in a greenhouse,SINAL; [2],98
same,Herbicidal activity when used by the post-emergence method in a greenhouse,CHEAL; [1],100
same,Herbicidal activity when used by the post-emergence method in a greenhouse,CHEAL; [2],100
same,Herbicidal activity when used by the post-emergence method in a greenhouse,ECHCG; [1],95
same,Herbicidal activity when used by the post-emergence method in a greenhouse,ECHCG; [2],95
